Reference: patent US20260184662A1, “COMPOSITE OF ACID AND SALT, AND PREPARATION METHOD THEREFOR” (NANJING NUTRABUILDING BIO-TECH CO., LTD., priority 2022, published 2026)
Where two headings read alike, the source gives them in different places.

Tests used:
[1] = Determination of moisture contents with KF moisture meter at different time points; format: physicochemical; conditions: temperature 23° C., humidity 92.5%
From the text: (§1) For R-3-hydroxybutyric acid, potassium R-3-hydroxybutyrate, mixture of R-3-hydroxybutyric acid and potassium R-3-hydroxybutyrate, and R-3-hydroxybutyric acid·potassium R-3-hydroxybutyrate complex of Example 1, under a certain condition, KF moisture meter was used to determine the moisture contents at different time points.
as §1, with “3-hydroxybutyric” for “R-3-hydroxybutyric”, “3-hydroxybutyrate,” for “R-3-hydroxybutyrate,”, “3-hydroxybutyrate” for “R-3-hydroxybutyrate”, “7,” for “1,”
as §1, with “S-3-hydroxybutyric” for “R-3-hydroxybutyric”, “S-3-hydroxybutyrate,” for “R-3-hydroxybutyrate,”, “S-3-hydroxybutyrate” for “R-3-hydroxybutyrate”, “13,” for “1,”
as §1, with “calcium” for “potassium”, “acid·calcium” for “acid·potassium”, “19,” for “1,”
(§2) For 3-hydroxybutyric acid, calcium 3-hydroxybutyrate, mixture of 3-hydroxybutyric acid and calcium 3-hydroxybutyrate, and 3-hydroxybutyric acid·calcium 3-hydroxybutyrate complex of Example 25, under a certain condition, KF moisture meter was used to determine the moisture contents at different time points.
as §2, with “S-3-hydroxybutyric” for “3-hydroxybutyric”, “S-3-hydroxybutyrate,” for “3-hydroxybutyrate,”, “S-3-hydroxybutyrate” for “3-hydroxybutyrate”, “31,” for “25,”
as §1, with “magnesium” for “potassium”, “acid·magnesium” for “acid·potassium”, “37,” for “1,”
as §2, with “magnesium” for “calcium”, “acid·magnesium 3-hydroxy butyrate” for “acid·calcium 3-hydroxybutyrate”, “43,” for “25,”
For S-3-hydroxybutyric acid, magnesium S-3-hydroxybutyrate, mixture of S-3-hydroxybutyric acid and magnesium S-3-hydroxybutyrate, and S-3-hydroxybutyric acid·magnesium S-3-hydroxybutyrate complex of Example 49, under a certain condition, KF moisture meter was used to determine the moisture contents at different time points.
(§3) For R-3-hydroxypentanoic acid, sodium R-3-hydroxypentanoate, mixture of R-3-hydroxypentanoic acid and sodium R-3-hydroxypentanoate, and R-3-hydroxypentanoic acid·sodium R-3-hydroxypentanoate complex of Example 55, under a certain condition, KF moisture meter was used to determine the moisture contents at different time points.
as §3, with “3-hydroxypentanoic” for “R-3-hydroxypentanoic”, “3-hydroxypentanoate,” for “R-3-hydroxypentanoate,”, “3-hydroxypentanoate” for “R-3-hydroxypentanoate”, “61,” for “55,”
as §3, with “S-3-hydroxypentanoic” for “R-3-hydroxypentanoic”, “S-3-hydroxypentanoate,” for “R-3-hydroxypentanoate,”, “S-3-hydroxypentanoate” for “R-3-hydroxypentanoate”, “67,” for “55,”

[2] = Stability of complexes at 30-80° C.; format: physicochemical
From the text: For R-3-hydroxybutyric acid, potassium R-3-hydroxybutyrate, mixture of R-3-hydroxybutyric acid and potassium R-3-hydroxybutyrate, and R-3-hydroxybutyric acid·potassium R-3-hydroxybutyrate complex of Example 1, […]
For 3-hydroxybutyric acid, potassium 3-hydroxybutyrate, mixture of 3-hydroxybutyric acid and potassium 3-hydroxybutyrate, and 3-hydroxybutyric acid·potassium 3-hydroxybutyrate complex of Example 7, […]
For S-3-hydroxybutyric acid, potassium S-3-hydroxybutyrate, mixture of S-3-hydroxybutyric acid and potassium S-3-hydroxybutyrate, and S-3-hydroxybutyric acid·potassium S-3-hydroxybutyrate complex of Example 13, […]
For R-3-hydroxybutyric acid, calcium R-3-hydroxybutyrate, mixture of R-3-hydroxybutyric acid and calcium R-3-hydroxybutyrate, and R-3-hydroxybutyric acid·calcium R-3-hydroxybutyrate complex of Example 19, […]
For 3-hydroxybutyric acid, calcium 3-hydroxybutyrate, mixture of 3-hydroxybutyric acid and calcium 3-hydroxybutyrate, and 3-hydroxybutyric acid·calcium 3-hydroxybutyrate complex of Example 25, […]
For S-3-hydroxybutyric acid, calcium S-3-hydroxybutyrate, mixture of S-3-hydroxybutyric acid and calcium S-3-hydroxybutyrate, and S-3-hydroxybutyric acid·calcium S-3-hydroxybutyrate complex of Example 31, […]
For R-3-hydroxybutyric acid, magnesium R-3-hydroxybutyrate, mixture of R-3-hydroxybutyric acid and magnesium R-3-hydroxybutyrate, and R-3-hydroxybutyric acid·magnesium R-3-hydroxybutyrate complex of Example 37, […]
For 3-hydroxybutyric acid, magnesium 3-hydroxybutyrate, mixture of 3-hydroxybutyric acid and magnesium 3-hydroxybutyrate, and 3-hydroxybutyric acid·magnesium 3-hydroxybutyrate complex of Example 43, […]
For S-3-hydroxybutyric acid, magnesium S-3-hydroxybutyrate, mixture of S-3-hydroxybutyric acid and magnesium S-3-hydroxybutyrate, and S-3-hydroxybutyric acid·magnesium S-3-hydroxybutyrate complex of Example 49, […]
For R-3-hydroxypentanoic acid, sodium R-3-hydroxypentanoate, mixture of R-3-hydroxypentanoic acid and sodium R-3-hydroxypentanoate, and R-3-hydroxypentanoic acid·sodium R-3-hydroxypentanoate complex of Example 55, […]
For 3-hydroxypentanoic acid, sodium 3-hydroxypentanoate, mixture of 3-hydroxypentanoic acid and sodium 3-hydroxypentanoate, and 3-hydroxypentanoic acid·sodium 3-hydroxypentanoate complex of Example 61, […]
For S-3-hydroxypentanoic acid, sodium S-3-hydroxypentanoate, mixture of S-3-hydroxypentanoic acid and sodium S-3-hydroxypentanoate, and S-3-hydroxypentanoic acid·sodium S-3-hydroxypentanoate complex of Example 67, […]

Molecule: CC[C@H](O)CC(=O)[O-].[Na+] [Sodium S-3-hydroxypentanoate, sodium S-3-hydroxypentanoate]
- moisture content (%) ([1]; 30 min): 0.91%
- moisture content (%) ([1]; 1 h): 1.73%
- moisture content (%) ([1]; 2 h): 2.91%
- moisture content (%) ([1]; 4 h): 4.43%
- moisture content (%) ([1]; 6 h): 6.22%
- moisture content (%) ([1]; 7 h): 6.79%
- moisture content (%) ([1]; 11 h): 10.61%
- moisture content (%) ([1]; 22 h): 20.44%
- Stability [2]: unchanged

Molecule: calcium 3-hydroxybutyrate
- moisture content (%) ([1]; 30 min): 0.97%
- moisture content (%) ([1]; 1 h): 1.81%
- moisture content (%) ([1]; 2 h): 2.34%
- moisture content (%) ([1]; 4 h): 4.12%
- moisture content (%) ([1]; 6 h): 5.22%
- moisture content (%) ([1]; 7 h): 6.01%
- moisture content (%) ([1]; 11 h): 10.24%
- moisture content (%) ([1]; 22 h): 17.72%
- Stability ([2]; 30° C.): unchanged
- Stability ([2]; 40° C.): unchanged
- Stability ([2]; 60° C.): melted
- Stability ([2]; 70° C.): melted
- Stability ([2]; 80° C.): melted

Molecule: calcium R-3-hydroxybutyrate
- moisture content (%) ([1]; 30 min): 0.92%
- moisture content (%) ([1]; 1 h): 1.82%
- moisture content (%) ([1]; 2 h): 2.43%
- moisture content (%) ([1]; 4 h): 4.22%
- moisture content (%) ([1]; 6 h): 5.35%
- moisture content (%) ([1]; 7 h): 6.04%
- moisture content (%) ([1]; 11 h): 10.44%
- moisture content (%) ([1]; 22 h): 17.68%
- Stability ([2]; 30° C.): unchanged
- Stability ([2]; 40° C.): unchanged
- Stability ([2]; 60° C.): melted
- Stability ([2]; 70° C.): melted
- Stability ([2]; 80° C.): melted

Molecule: magnesium 3-hydroxybutyrate
- moisture content (%) ([1]; 30 min): 0.81%
- moisture content (%) ([1]; 1 h): 1.25%
- moisture content (%) ([1]; 2 h): 2.23%
- moisture content (%) ([1]; 4 h): 4.12%
- moisture content (%) ([1]; 6 h): 6.43%
- moisture content (%) ([1]; 7 h): 8.14%
- moisture content (%) ([1]; 11 h): 12.42%
- moisture content (%) ([1]; 22 h): 18.66%
- Stability ([2]; 30° C.): unchanged
- Stability ([2]; 40° C.): unchanged
- Stability ([2]; 60° C.): Melted
- Stability ([2]; 70° C.): melted
- Stability ([2]; 80° C.): melted

Molecule: magnesium R-3-hydroxybutyrate
- moisture content (%) ([1]; 30 min): 0.82%
- moisture content (%) ([1]; 1 h): 1.22%
- moisture content (%) ([1]; 2 h): 2.13%
- moisture content (%) ([1]; 4 h): 4.22%
- moisture content (%) ([1]; 6 h): 6.35%
- moisture content (%) ([1]; 7 h): 8.04%
- moisture content (%) ([1]; 11 h): 12.44%
- moisture content (%) ([1]; 22 h): 18.68%
- Stability ([2]; 30° C.): unchanged
- Stability ([2]; 40° C.): unchanged
- Stability ([2]; 60° C.): melted
- Stability ([2]; 70° C.): melted
- Stability ([2]; 80° C.): melted
